The values that follow come from US20040248816A1, “Treatment of migraine” (Boehringer Ingelheim International GmbH, priority 2003, published 2004).

In this experiment the test system is vasodilatation of the facial skin, induced by electrical ganglion stimulation. The experiment can be described thus: Facial skin blood flow: vasodilatation of the facial skin induced by electrical trigeminal ganglion stimulation. Type of experiment: in vivo, rat. The settings on record: anaesthetised male Wistar rats, i.v. 5 minutes before the second stimulation, BIBN 4096 Cl 0.03 mg/kg, sumatriptan 1.0 mg/kg, combination (0.03 mg + 1.0 mg)/kg; for % of trigeminus stimulation: first stimulation as control, saline control 82.7 ± 4.4. The protocol: Measurement of the Facial Skin Blood Flow
The facial skin blood flow was measured by a modified method as described by Escott et al. (Escott, K. J., Beattie, D. T., Connor, H. E., Brain, S. D. (1995), Trigeminal ganglion stimulation increases facial skin blood flow in the rat: a major role for calcitonin gene-related peptide, Brain Research, 669(1), 93-99). Fasting male Wistar rats (strain CHbb:THOM, 280-320 g) were anaesthetised with sodium pentobarbitone (initially with 60 mg/kg i.p. and maintained throughout the experiment with an intraperitoneal infusion of 30 mg/kg/h through a 23 G needle using a solution of 10 mg/ml). Both sides of the buccal region of the facial skin were shaved and depilated with a commercially available depilatory cream (Pilca, Schwarzkopf & Henkel, 40551 Düsseldorf, Germany). The trachea was fitted with a cannula, and the animals were artificially ventilated (80 breaths per minute) with ambient air enriched with oxygen. The body temperature was maintained at 37° C. using an automatic heating pad. The left femoral artery and left femoral vein were fitted with cannulas for continuous measurement of the arterial blood pressure or the intravenous administration of test compounds. A neuromuscular blockade was obtained by intravenous administration of pancuronium bromide (1 mg/kg/0.5 ml, 5 minutes before each electrical stimulation). The heart rate was derived from the blood pressure signal. The blood pressure and heart rate were recorded continuously during the course of the experiment in order to assess the level of anaesthesia and monitor the cardiovascular activities of the pharmaceutical compositions used in this study.
The animals were placed in a stereotactic frame, and a longitudinal cut was made in the scalp. A small hole was drilled in the skull (on the left or right) and a bipolar electrode (Rhodes SNEX-100, obtained from David Kopf Instruments, Tujunga, 91042 Calif., USA) was lowered by means of a micromanipulator into the trigeminal ganglion (0.32 cm dorsally of the bregma, ±0.30 cm laterally of the centre line and 0.95 cm below the dural surface). The position of the electrodes in the trigeminal ganglia was checked visually at the end of each experiment after the removal of the brain. […] Microvascular changes in blood flow in the facial skin were measured by laser Doppler flow measurement using a Periflux Laser-Doppler system (PeriFLUX 4001, wavelength: 780 nm; time constant: 3 s; Perimed AB, Järfälla, S-17526, Sweden). […] Changes in blood flow were measured as flow in any desired units and expressed as the area under the flow curve (mm^2) according to Escott et al. (1995). […]

Where [1] appears, read: Rattus norvegicus, iv, versus saline solution control, read-out: % inhibition compared with the control value.

By inhibition is commonly meant the percentage by which the read-out fell short of the control. For the molecule `CNS(=O)(=O)Cc1ccc2[nH]cc(CCN(C)C)c2c1` [sumatriptan], the “% of trigeminus stimulation” value is on record as 68.8 ± 6.8%. In addition, under setting [1], the inhibition at 1 mg/kg is 16.8%.
For `NCCCC[C@H](NC(=O)[C@@H](Cc1cc(Br)c(O)c(Br)c1)NC(=O)N1CCC(N2Cc3ccccc3NC2=O)CC1)C(=O)N1CCN(c2ccncc2)CC1` [BIBN 4096 Cl, 1-[N^2-[3,5-dibromo-N-[[4-(3,4-dihydro-2(1H)-oxoquinazolin-3-yl)-1-piperidinyl]-carbonyl]-D-tyrosyl]-L-lysyl]-4-(4-pyridinyl)-piperazine], the “% of trigeminus stimulation” value came out at 60.3 ± 5.1%. In addition, the inhibition at 0.03 mg/kg under setting [1] amounted to 27.1%.
